A short description of data set [1]: Gln and CBD concentration in the synovial fluid 8 hours after oral administration. Conditions: 8 h after oral administration of 15 mg/Kg CBD + 500 mg/Kg Gln. As for the experimental part: (§1) Three different water-soluble CBD oral formulae were tested, F #01 (20%), L #02 (2.5% CBD) and I #03 (20% CBD), and administered at 15 mg/Kg rat.
(§2) The three formulae were tested in combination with 500 mg/Kg Glucosamine (Gln).
(§3) The total administered volume was 10 mL/Kg (CBD+Gln).
(§4) The trial was performed on Sprague Dawley male rat (n=3/group).
(§5) A single dose containing CBD and Gln was provided PO at t=0.
Gln concentration in the synovial fluid was examined 8 hours after oral administration.

A short description of another data set: in vivo. Conditions: male, Sprague Dawley, rat. As for the experimental part: as §1, §2, §3, §4, §5
CBD and Gln plasma concentrations were examined 1, 4 and 8 hours following a single administration.

As for `C=C(C)[C@@H]1CCC(C)=C[C@H]1c1c(O)cc(CCCCC)cc1O` [CBD, Cannabidiol], in data set [1], the “CBD in the synovial fluid” value is recorded as “No CBD was detected”.

Regarding `N[C@H]1C(O)O[C@H](CO)[C@@H](O)[C@@H]1O` (some centres unmarked) [Gln, Glucosamine], the “decrease of Gln plasma concentration from the 4 h point” value in “in vivo” stood at 94.0%. Besides, in “in vivo” (po, 500 mg/kg), the concentration at 1 h came to 2.04 ng/mL, the concentration at 4 h is 134 ng/mL and the concentration at 8 h is 8 ng/mL.
